From patent US20170274001A1, “Compositions and Methods for Increasing Red Blood Cells” (Yale University, priority 2014, published 2017)
Entries after “also recorded” stand apart in the source; their conditions may differ.

Key:
scavenger receptor B1 = molecular target: T1, scavenger receptor B1 (Mus musculus, UniProt Q61009); experiment: Clearance of infused human RBCs from peripheral blood of RGSKI mice after blocking scavenger receptor B1 (FIG. 4); format: in vivo; details: BLT-1 80 mg/kg body weight one hour before human RBC infusion, control DMSO
T1 construct: endogenous in cells; host or cells: RGSKI mice (whole animal, in vivo)
T1 sequence (Q61009 1-509): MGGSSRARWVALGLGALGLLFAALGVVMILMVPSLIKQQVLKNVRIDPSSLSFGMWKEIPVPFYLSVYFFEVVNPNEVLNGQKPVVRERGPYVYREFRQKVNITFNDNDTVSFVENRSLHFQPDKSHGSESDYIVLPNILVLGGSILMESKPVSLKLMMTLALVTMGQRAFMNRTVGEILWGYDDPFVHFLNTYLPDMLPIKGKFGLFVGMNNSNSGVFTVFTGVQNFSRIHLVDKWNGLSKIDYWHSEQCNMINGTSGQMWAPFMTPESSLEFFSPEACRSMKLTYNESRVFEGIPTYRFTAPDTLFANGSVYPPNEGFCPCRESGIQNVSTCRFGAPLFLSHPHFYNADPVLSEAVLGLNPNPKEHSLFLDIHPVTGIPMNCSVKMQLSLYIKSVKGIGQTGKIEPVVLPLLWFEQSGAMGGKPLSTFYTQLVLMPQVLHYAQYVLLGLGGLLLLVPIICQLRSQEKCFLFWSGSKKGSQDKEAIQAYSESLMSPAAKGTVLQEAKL
Method: RGSKI mice were treated with scavenger receptor B1 named BLT-1 (80 mg/kg body weight). One hour after treatment, mice were infused with human RBCs and peripheral blood was collected at indicated time points. Control: DMSO.

human RBCs = experiment: Clearance of infused human RBCs from peripheral blood of RGSKI mice after blocking macrophage receptors (FIG. 3); format: in vivo; details: RGSKI mice treated one hour before human RBC infusion, D-4F 10 mg/mouse, control PBS, peripheral blood by FACS
Method: D-4F blocks several scavenger receptors. RGSKI mice were treated with different antibodies or inhibitors to block various macrophage receptors. One hour after treatment, mice were infused with human RBCs and peripheral blood was collected at indicated time points. Anti-Dectin: 50 ug/mouse; Anti-CD169: 50 ug/mouse; Anti-CD169 clone 3D6: 100 ug/mice; Anti-Mannose receptor: 50 ug/mouse; D-4F: 10 mg/mouse; Asialofetuin: 10 mg/mouse; Control: PBS.
First, an experiment was conducted to examine the clearance of human red blood cells in mouse peripheral blood. Human and mouse red blood cells were pre-labeled with CFSE or violet dye, respectively, and then were transfused into RGSKI mice by retro-orbital injection. Peripheral blood was collected 5 minutes after blood infusion and the frequency of infused mouse or human RBCs was determined by FACS. It was observed that the frequency of infused human RBCs decreased more rapidly than mouse RBCs (FIG. 1B).
Experiments were then performed to evaluate the role of the scavenger receptor in RBC clearance. D-4F is an apolipoprotein A-I mimetic peptide and a general scavenger receptor inhibitor. D-4F is an 18 D-amino acid peptide (Ac-D-W-L-K-A-F-Y-D-K-V-A-E-K-L-K-E-A-F—NH2; SEQ ID NO: 2). […] Other pathways which might involve in the destruction of human RBCs in the periphery were also tested.

[1] = Navab et al., 2006; cited from earlier work

| Molecule | percent of remaining RBCs in the periphery after human RBC infusion (scavenger receptor B1) | protection of infused human RBCs in the periphery (human RBCs) | protection of infused human RBCs in the periphery (human RBCs; listed as D4-F) | cholesterol efflux, inflammation and atherosclerosis [1] |
| --- | --- | --- | --- | --- |
| CCCCCCC1CCCC1=NNC(N)=S (stereo not shown) [BLT-1, 2-Hexyl-1-cyclopentanone thiosemicarbazone] | can protect infused human RBCs in the mouse system; also recorded: increases the percent of remaining RBCs in the periphery |  |  |  |
| Ac-D-W-L-K-A-F-Y-D-K-V-A-E-K-L-K-E-A-F—NH2 (DWLKAFYDKVAEKLKEAF; HELM PEPTIDE1{[ac].[dD].[dW].[dL].[dK].[dA].[dF].[dY].[dD].[dK].[dV].[dA].[dE].[dK].[dL].[dK].[dE].[dA].[dF].[am]}$$$$V2.0; SMILES CC(=O)N[C@H](CC(=O)O)C(=O)N[C@H](Cc1c[nH]c2ccccc12)C(=O)N[C@H](CC(C)C)C(=O)N[C@H](CCCCN)C(=O)N[C@H](C)C(=O)N[C@H](Cc1ccccc1)C(=O)N[C@H](Cc1ccc(O)cc1)C(=O)N[C@H](CC(=O)O)C(=O)N[C@H](CCCCN)C(=O)N[C@@H](C(=O)N[C@H](C)C(=O)N[C@H](CCC(=O)O)C(=O)N[C@H](CCCCN)C(=O)N[C@H](CC(C)C)C(=O)N[C@H](CCCCN)C(=O)N[C@H](CCC(=O)O)C(=O)N[C@H](C)C(=O)N[C@H](Cc1ccccc1)C(N)=O)C(C)C) [D-4F] |  | blocks in vivo destruction of human RBCs | protected infused human RBCs in the periphery | increase cholesterol efflux and reduce inflammation and atherosclerosis |
